Laboratory results reported in patent US11117888B2, “Irreversible inhibitors of pyruvate kinase M2 and the use thereof” (China Medical University, priority 2020, dated 2021).

Key:
Format in all cases: cell-based, human
lung cancer cell lines = assay: MTT cell viability assay, panel of lung cancer cell lines
Text: Cell lines, cell culture, biochemical reagents, and antibodies. MiaPaCa-2, AsPC-1, and Panc-1 human pancreatic cancer cells, MCF-7 and MDA-MB-231 breast cancer cells, SCC4 and SCC2059 oral cancer cells, PC-3 and LNCaP prostate cancer cells, H157, H460, H1975, PC-9 and H1650 lung cancer cells were obtained from the American Type Culture Collection (ATCC, Manassas, Va.). All these cells were maintained in recommended growth medium (RPMI 1640 or DMEM) supplemented with 10% fetal bovine serum (FBS) (Invitrogen, Carlsbad, Calif., USA) and antibiotics at 37° C. in a humidified incubator containing 5% CO2. For SILAC experiments, PC-9 cells were grown in SILAC DMEM medium (Thermo Fisher) supplemented with 10% dialyzed FBS and 100 μg/mL each of unlabeled L-arginine and L-lysine (light medium) or ^13C/^15N stable isotope-labeled L-arginine and L-lysine (heavy medium). […]
Cell viability assays. Drug effects on cell viability was assessed by 3-(4,5-dimethylthiazol-2-yl)-2,5-diphenyltetrazolium bromide ([…]) assays. […] The medium was then removed from each well and replaced with DMSO to dissolve the reduced MTT dye for subsequent colorimetric measurement of absorbance at 560 nm. Cell viabilities are expressed as percentages of viable cells relative to the corresponding vehicle-treated control group.

PC-9 cells = assay: ABPP-SILAC proteomic target identification; conditions: 1 μM, 1 hour, LC-MS/MS
Method: As part of our effort to identify compound 1's target(s), we embarked on the use of compound 2 as an ABPP probe to conduct SILAC-based proteomic analysis. […] In this experiment, PC-9 cells were grown in cultural medium supplemented with unlabeled L-arginine and L-lysine (light medium) versus ^13C/^15N stable isotope-labeled L-arginine and L-lysine (heavy medium), generating two populations of cells (light versus heavy cells). Heavy PC-9 cells were then exposed to the ABPP (1 μM) for 1 hour to allow intracellular labelling of target proteins, while light cells were treated with DMSO vehicle under the same condition. […] These peptide mixtures were analyzed by liquid chromatography-tandem mass spectrometry (LC-MS/MS), and the resulting data were searched against various primary sequence databases by using the Mascot search engine. […]
SILAC analysis and click chemistry. […] The supernatant was transferred to a 1.5 mL microfuge tube, and the protein concentration was determined by the BCA protein assay (Thermo Fisher Scientific) and then normalized to 1 mg/mL. […]
Proteomic data analysis. Putative target proteins of compound 1 and protein-protein interaction network were identified and analyzed, respectively, through a web-based search of the STRING database (https://string-db.org/). […]

[1] = system: PKM2, EGFR, Stat3, β-catenin in PC-9 cells; assay: Immunoblot analysis of oncogenic effectors in PC-9 cells; conditions: Western blot, 24 hours
Method: Immunoblot analysis. PC-9 cells were seeded into 6 cm dish at a concentration of 5×10^5 cells/mL. After 24 hours, cells were treated with 0-1 μM compound 1 or DMSO alone for 24 hours. The cells were harvested at 24 hours, and protein extractions were carried out. The protein lysate was subjected to 10% SDS-PAGE and transferred to a nitrocellulose membrane (GE Healthcare Life Sciences). Protein expression was analyzed by Western blotting using primary antibodies against PKM2, EGFR, p-STAT3, STAT3, p-β-catenin (Cell Signaling Technology), β-catenin (Santa Cruz Biotechnology) and β-actin (Sigma-Aldrich), followed by incubation with horseradish peroxidase-conjugated secondary (Jackson ImmunoResearch Laboratories). Specific proteins were detected by chemiluminescence using ECL Plus Western Blotting Detection Reagents (GE Healthcare Biosciences).

[2] = system: pyruvate kinase activity in PC-9 cells; assay: Pyruvate kinase activity assay in PC-9 cells; conditions: 0.25 μM, 6 hours, relative to vehicle control
Method: Pyruvate kinase activity assays. PC-9 cells were seeded into 6 cm dishes at a concentration of 5×10^5 cells/mL. After 24 hours, cells were treated with 0.25 μM compound 1 or DMSO for 6 hours. The pyruvate kinase activity of compound 1-treated PC-9 and vehicle control cells was measured by using a commercial colorimetric assay kit from BioVision (Milpitas, Calif., USA) according to the manufacturer's protocol. In addition, to verify the specificity of compound 1 toward PKM2 versus PKM1, the inhibition of the kinase activity of recombinant PKM1 (SRP0415, Sigma-Aldrich) and recombinant PKM2 (SAE0021, Sigma-Aldrich) by compound 1 was conducted using the aforementioned assay kit.

SMILES | antiproliferative effect in lung cancer cell lines (lung cancer cell lines) | protein targets labelled by ABPP probe (PC-9 cells) | expression and/or phosphorylation of PKM2, EGFR, Stat3, β-catenin [1] | pyruvate kinase activity in cells [2]
C#CCOc1ccc(-c2ccc(-c3cc(CCC(=O)NC)nn3-c3ccc(NC(=O)C#C)cc3)cc2)cc1 [compound 2, N-(4-(3-(3-(Methylamino)-3-oxopropyl)-5-(4′-(prop-2-yn-1-yloxy)-[1,1′-biphenyl]-4-yl)-1H-pyrazol-1-yl)phenyl)propiolamide] | pattern of growth inhibition similar to that of compound 1 | the protein with the highest matching score was the 58 kDa PKM2 | – | –
C#CC(=O)Nc1ccc(-n2nc(CCc3nnc(C)o3)cc2-c2ccc(-c3ccc(C(F)(F)F)cc3)cc2)cc1 [compound 3] | high antiproliferative potencies | – | high efficacy in suppressing the phosphorylation/expression of various oncogenic biomarkers | equipotent in suppressing PKM2 kinase activity relative to compound 1
